Assay results as given in US12539292B2, “BRM targeting compounds and associated methods of use” (Arvinas Operations, Inc., priority 2018, dated 2026).
Where two headings read alike, the source gives them in different places.

Molecular target: T1, BRM (Homo sapiens, UniProt P51531)
T1 construct: In-Cell Western Screen of BRM Degradation in SW1573 Cells; endogenous in cells; host or cells: SW1573
Assay: In-cell Western screen of BRM degradation in SW1573 cells (Dmax and DC50)
Assay type: cell-based
How it was run: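 After adhering overnight, cells received compound for 18-20 hours. They were then washed in cold DPBS, fixed with 4% PFA for 20 min and permeabilized for 30 min. Blocking and fluorescent secondary staining followed before imaging.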

[1] = BRM degradation, SW1573 cells, read-out: DC50
[2] = BRM degradation, SW1573 cells, tested at the top concentration of between 0.3 and 10 μM, read-out: Dmax (%) (% degraded)
[3] = BRM degradation, SW1573 cells, Table 2D, read-out: **Dmax (%) (% degraded)
[4] = BRM degradation, SW1573 cells, Table 2D, read-out: *DC50
[5] = BRM degradation, SW1573 cells, when tested at the top concentration of between 0.3 and 10 μM, read-out: Dmax (%) (% degraded)
[6] = BRM degradation, read-out: BRM DC50
[7] = SW1573, % degraded, when tested at the top concentration of between 0.3 and 10 μM, read-out: BRM Dmax (%)

T1 sequence (P51531 whole entry): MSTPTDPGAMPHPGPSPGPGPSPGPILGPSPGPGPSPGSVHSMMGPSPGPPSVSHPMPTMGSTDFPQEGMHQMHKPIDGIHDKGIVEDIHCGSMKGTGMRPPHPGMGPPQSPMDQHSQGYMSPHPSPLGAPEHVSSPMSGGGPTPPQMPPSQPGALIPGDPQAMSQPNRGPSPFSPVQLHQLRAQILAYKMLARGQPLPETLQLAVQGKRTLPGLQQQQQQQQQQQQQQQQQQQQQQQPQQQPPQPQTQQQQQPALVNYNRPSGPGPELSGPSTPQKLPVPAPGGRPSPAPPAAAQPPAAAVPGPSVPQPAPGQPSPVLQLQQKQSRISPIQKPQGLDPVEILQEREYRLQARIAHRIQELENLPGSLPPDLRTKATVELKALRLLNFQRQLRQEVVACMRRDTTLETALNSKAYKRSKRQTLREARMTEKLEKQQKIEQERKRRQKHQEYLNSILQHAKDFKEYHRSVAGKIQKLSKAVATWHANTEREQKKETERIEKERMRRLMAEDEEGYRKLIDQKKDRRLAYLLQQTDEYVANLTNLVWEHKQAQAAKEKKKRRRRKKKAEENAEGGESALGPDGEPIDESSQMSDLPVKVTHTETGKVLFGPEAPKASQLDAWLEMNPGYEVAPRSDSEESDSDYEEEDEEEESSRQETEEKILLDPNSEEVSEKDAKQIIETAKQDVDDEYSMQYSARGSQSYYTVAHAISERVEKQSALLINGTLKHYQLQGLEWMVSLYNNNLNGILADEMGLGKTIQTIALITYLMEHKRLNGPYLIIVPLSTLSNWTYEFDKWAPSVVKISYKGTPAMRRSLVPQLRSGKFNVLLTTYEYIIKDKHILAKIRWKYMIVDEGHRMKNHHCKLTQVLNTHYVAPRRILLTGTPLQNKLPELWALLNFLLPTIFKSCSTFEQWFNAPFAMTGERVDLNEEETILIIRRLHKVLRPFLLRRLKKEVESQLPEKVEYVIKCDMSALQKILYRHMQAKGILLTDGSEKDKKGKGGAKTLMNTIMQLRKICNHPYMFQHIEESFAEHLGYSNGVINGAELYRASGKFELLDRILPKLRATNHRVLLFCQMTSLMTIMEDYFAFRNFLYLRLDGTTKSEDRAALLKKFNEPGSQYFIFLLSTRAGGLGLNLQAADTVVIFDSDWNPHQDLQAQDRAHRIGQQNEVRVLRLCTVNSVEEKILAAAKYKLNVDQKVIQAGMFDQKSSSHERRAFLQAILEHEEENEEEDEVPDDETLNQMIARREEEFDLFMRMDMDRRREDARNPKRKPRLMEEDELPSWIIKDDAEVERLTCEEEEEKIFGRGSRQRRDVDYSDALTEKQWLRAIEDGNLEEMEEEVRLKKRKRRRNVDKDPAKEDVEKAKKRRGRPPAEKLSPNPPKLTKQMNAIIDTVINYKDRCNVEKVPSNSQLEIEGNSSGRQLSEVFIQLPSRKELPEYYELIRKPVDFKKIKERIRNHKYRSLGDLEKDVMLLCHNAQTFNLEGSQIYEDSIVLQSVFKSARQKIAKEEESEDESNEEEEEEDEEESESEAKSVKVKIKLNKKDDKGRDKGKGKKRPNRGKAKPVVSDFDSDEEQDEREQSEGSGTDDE

In the case of `CC(C)[C@H](C(=O)N1C[C@H](O)C[C@H]1C(=O)N[C@@H](C)c1ccc(-c2scnc2N)cc1)c1cc(N2CCC(CN3CCC(O[C@H]4C[C@H](Oc5cc(N6C7CCC6CN(c6cc(-c8ccccc8O)nnc6N)C7)ccn5)C4)CC3)CC2)no1` [compound 629, (2S,4R)-1-((2S)-2-(3-(4-((4-((1r,3r)-3-((4-(3-(3-amino-6-(2-hydroxyphenyl)pyridazin-4-yl)-3,8-diazabicyclo[3.2.1]octan-8-yl)pyridin-2-yl)oxy)cyclobutoxy)piperidin-1-yl)methyl)piperidin-1-yl)isoxazol-5-yl)-3-methylbutanoyl)-N-((S)-1-(4-(4-aminothiazol-5-yl)phenyl)ethyl)-4-hydroxypyrrolidine-2-carboxamide], the DC50 [1] is reported as 2.5 to 10 nM and the Dmax (BRM degradation, SW1573 cells, read-out: Dmax (% degraded)) is reported as greater than 75%.
For `Cc1ncsc1-c1ccc([C@H](C)NC(=O)[C@@H]2C[C@@H](O)CN2C(=O)[C@@H](c2cc(OCCCC#Cc3ccc(O[C@H]4C[C@H](Oc5cc(N6C7CCC6CN(c6cc(-c8ccccc8O)nnc6N)C7)ccn5)C4)cn3)no2)C(C)C)cc1` [compound 250, (2S,4R)-1-((2R)-2-(3-((5-(5-((1r,3r)-3-((4-(3-(3-amino-6-(2-hydroxyphenyl)pyridazin-4-yl)-3,8-diazabicyclo[3.2.1]octan-8-yl)pyridin-2-yl)oxy)cyclobutoxy)pyridin-2-yl)pent-4-yn-1-yl)oxy)isoxazol-5-yl)-3-methylbutanoyl)-4-hydroxy-N-((S)-1-(4-(4-methylthiazol-5-yl)phenyl)ethyl)pyrrolidine-2-carboxamide], the DC50 [1] was less than 2.5 nM and the Dmax [2] was greater than 75%.
In the case of `Cc1ncsc1-c1cc(F)c([C@H](C)NC(=O)[C@@H]2C[C@@H](O)CN2C(=O)[C@@H](c2cc(OCCC3CCN(C[C@H]4C[C@H](Oc5cc(N6C7CCC6CN(c6cc(-c8ccccc8O)nnc6N)C7)ccn5)C4)CC3)no2)C(C)C)cc1F` [compound 552, (2S,4R)-1-((2R)-2-(3-(2-(1-(((1r,3R)-3-((4-(3-(3-amino-6-(2-hydroxyphenyl)pyridazin-4-yl)-3,8-diazabicyclo[3.2.1]octan-8-yl)pyridin-2-yl)oxy)cyclobutyl)methyl)piperidin-4-yl)ethoxy)isoxazol-5-yl)-3-methylbutanoyl)-N-((S)-1-(2,5-difluoro-4-(4-methylthiazol-5-yl)phenyl)ethyl)-4-hydroxypyrrolidine-2-carboxamide], the Dmax [3] is reported as greater than 75% and the DC50 [4] is reported as less than 2.5 nM.
Compound `CC(=O)N1CC(NC(=O)[C@@H]2C[C@@H](O)CN2C(=O)[C@@H](c2cc(OCCN3CCN(CCOc4cc(N5C6CCC5CN(c5cc(-c7ccccc7O)nnc5N)C6)ccn4)CC3)no2)C(C)C)(c2ccc(-c3scnc3C)cc2)C1` [compound 127, (2S,4R)-N-(1-acetyl-3-(4-(4-methylthiazol-5-yl)phenyl)azetidin-3-yl)-1-((2R)-2-(3-(2-(4-(2-((4-(3-(3-amino-6-(2-hydroxyphenyl)pyridazin-4-yl)-3,8-diazabicyclo[3.2.1]octan-8-yl)pyridin-2-yl)oxy)ethyl)piperazin-1-yl)ethoxy)isoxazol-5-yl)-3-methylbutanoyl)-4-hydroxypyrrolidine-2-carboxamide] has a DC50 [1] of 10 to 30 nM and a Dmax [5] greater than 75%.
`Cc1ncsc1-c1ccc([C@H](C)NC(=O)[C@@H]2C[C@@H](O)CN2C(=O)[C@@H](c2cc(N3CCN(CC#Cc4ncc(O[C@H]5C[C@H](Oc6cc(N7C8CCC7CN(c7cc(-c9ccccc9O)nnc7N)C8)ccn6)C5)cn4)CC3)no2)C(C)C)cc1` [compound 522, (2S,4R)-1-((2R)-2-(3-(4-(3-(5-((1r,3r)-3-((4-(3-(3-amino-6-(2-hydroxyphenyl)pyridazin-4-yl)-3,8-diazabicyclo[3.2.1]octan-8-yl)pyridin-2-yl)oxy)cyclobutoxy)pyrimidin-2-yl)prop-2-yn-1-yl)piperazin-1-yl)isoxazol-5-yl)-3-methylbutanoyl)-4-hydroxy-N-((S)-1-(4-(4-methylthiazol-5-yl)phenyl)ethyl)pyrrolidine-2-carboxamide] showed a DC50 [6] of less than 2.5 nM and a Dmax [7] greater than 75%.
Work on `Cc1ncsc1-c1ccc([C@H](C)NC(=O)[C@@H]2C[C@@H](O)CN2C(=O)[C@@H](c2cc(OCCN3CCC(O[C@H]4C[C@H](C#CCn5cc(-c6cc(-c7ccccc7O)nnc6N)cn5)C4)CC3)no2)C(C)C)cc1` [compound 238, (2S,4R)-1-((R)-2-(3-(2-(4-((1r,3R)-3-(3-(4-(3-amino-6-(2-hydroxyphenyl)pyridazin-4-yl)-1H-pyrazol-1-yl)prop-1-yn-1-yl)cyclobutoxy)piperidin-1-yl)ethoxy)isoxazol-5-yl)-3-methylbutanoyl)-4-hydroxy-N-((S)-1-(4-(4-methylthiazol-5-yl)phenyl)ethyl)pyrrolidine-2-carboxamide] yielded a DC50 [1] of less than 2.5 nM and a Dmax [2] greater than 75%.
`Cc1ncsc1-c1ccc([C@H](C)NC(=O)[C@@H]2C[C@@H](O)CN2C(=O)[C@H](c2cc(N3CCC(CC4CCN(C[C@H]5C[C@H](Oc6cc(N7C8CCC7CN(c7cc(-c9ccccc9O)nnc7N)C8)ccn6)C5)CC4)CC3)no2)C(C)C)cc1` [compound 472, (2S,4R)-1-((2S)-2-(3-(4-((1-(((1r,3r)-3-((4-(3-(3-amino-6-(2-hydroxyphenyl)pyridazin-4-yl)-3,8-diazabicyclo[3.2.1]octan-8-yl)pyridin-2-yl)oxy)cyclobutyl)methyl)piperidin-4-yl)methyl)piperidin-1-yl)isoxazol-5-yl)-3-methylbutanoyl)-4-hydroxy-N-((S)-1-(4-(4-methylthiazol-5-yl)phenyl)ethyl)pyrrolidine-2-carboxamide] was tested, and the DC50 (target protein degradation, read-out: BRM DC50) was greater than 30 nM.
In the case of `Cc1ncsc1-c1ccc([C@H](C)NC(=O)[C@@H]2C[C@@H](O)CN2C(=O)[C@@H](c2cc(OCCN3CCC(O[C@H]4C[C@H](Oc5cc(N6C7CCC6CN(c6cc(N)nc8nc(-c9ccccc9O)cn68)C7)ccn5)C4)CC3)no2)C(C)C)cc1` [compound 516], the DC50 [6] is reported as greater than 30 nM.
Work on `Cc1ncsc1-c1ccc(CNC(=O)[C@@H]2C[C@@H](O)CN2C(=O)[C@@H](NC(=O)COCCOCCOCCOCCOCCOCCn2cc(-c3cc(-c4ccccc4O)nnc3N)cn2)C(C)(C)C)cc1` [compound 3, (2S,4R)-1-((S)-23-(4-(3-amino-6-(2-hydroxyphenyl)pyridazin-4-yl)-1H-pyrazol-1-yl)-2-(tert-butyl)-4-oxo-6,9,12,15,18,21-hexaoxa-3-azatricosanoyl)-4-hydroxy-N-(4-(4-methylthiazol-5-yl)benzyl)pyrrolidine-2-carboxamide] yielded a DC50 [1] greater than 30 nM and a Dmax [5] greater than 75%.
Work on `Cc1ncsc1-c1ccc([C@H](CCC#N)NC(=O)[C@@H]2C[C@@H](O)CN2C(=O)[C@@H](c2cc(OCCN3CCC(O[C@H]4C[C@H](Oc5cc(N6C7CCC6CN(c6cc(-c8ccccc8O)nnc6N)C7)ccn5)C4)CC3)no2)C(C)C)cc1` [compound 533, (2S,4R)-1-((2R)-2-(3-(2-(4-((1r,3R)-3-((4-(3-(3-amino-6-(2-hydroxyphenyl)pyridazin-4-yl)-3,8-diazabicyclo[3.2.1]octan-8-yl)pyridin-2-yl)oxy)cyclobutoxy)piperidin-1-yl)ethoxy)isoxazol-5-yl)-3-methylbutanoyl)-N-((S)-3-cyano-1-(4-(4-methylthiazol-5-yl)phenyl)propyl)-4-hydroxypyrrolidine-2-carboxamide] yielded a DC50 [6] of less than 2.5 nM and a Dmax [7] greater than 75%.
`Cc1ncsc1-c1ccc([C@H](C)NC(=O)[C@@H]2C[C@@H](O)CN2C(=O)[C@@H](c2cc(OCCC3CCN(C[C@H]4C[C@H](N5CCC(C(C)n6cc(-c7cc(-c8ccccc8O)nnc7N)cn6)CC5)C4)CC3)no2)C(C)C)cc1` (stereo partly drawn) [compound 599, (2S,4R)-1-((2R)-2-(3-(2-(1-(((1r,3R)-3-(4-(1-(4-(3-amino-6-(2-hydroxyphenyl)pyridazin-4-yl)-1H-pyrazol-1-yl)ethyl)piperidin-1-yl)cyclobutyl)methyl)piperidin-4-yl)ethoxy)isoxazol-5-yl)-3-methylbutanoyl)-4-hydroxy-N-((S)-1-(4-(4-methylthiazol-5-yl)phenyl)ethyl)pyrrolidine-2-carboxamide] gave a Dmax [3] greater than 75% and a DC50 [4] of less than 2.5 nM.
Work on `Cc1ncsc1-c1ccc([C@H](C)NC(=O)[C@H]2C[C@H](O)CN2C(=O)C(c2cc(OCCN3CCC(O[C@H]4C[C@H](Oc5cc(N6C7CCC6CN(c6cc(-c8ccccc8O)nnc6N)C7)ccn5)C4)CC3)no2)C(C)C)cn1` (stereo partly drawn) [compound 254, (2R,4S)-1-(2-(3-(2-(4-((1r,3r)-3-((4-(3-(3-amino-6-(2-hydroxyphenyl)pyridazin-4-yl)-3,8-diazabicyclo[3.2.1]octan-8-yl)pyridin-2-yl)oxy)cyclobutoxy)piperidin-1-yl)ethoxy)isoxazol-5-yl)-3-methylbutanoyl)-4-hydroxy-N-((S)-1-(6-(4-methylthiazol-5-yl)pyridin-3-yl)ethyl)pyrrolidine-2-carboxamide] yielded a DC50 [1] greater than 30 nM.
Work on `Cc1ncsc1-c1ccc([C@H](NC(=O)[C@@H]2C[C@@H](O)CN2C(=O)[C@@H](c2cc(OCCN3CCC(O[C@H]4C[C@H](Oc5cc(N6C7CCC6CN(c6cc(-c8ccccc8O)nnc6N)C7)ccn5)C4)CC3)no2)C(C)C)C(F)F)cn1` [compound 243, (2S,4R)-1-((2R)-2-(3-(2-(4-((1r,3R)-3-((4-(3-(3-amino-6-(2-hydroxyphenyl)pyridazin-4-yl)-3,8-diazabicyclo[3.2.1]octan-8-yl)pyridin-2-yl)oxy)cyclobutoxy)piperidin-1-yl)ethoxy)isoxazol-5-yl)-3-methylbutanoyl)-N-((S)-2,2-difluoro-1-(6-(4-methylthiazol-5-yl)pyridin-3-yl)ethyl)-4-hydroxypyrrolidine-2-carboxamide] yielded a DC50 [1] of less than 2.5 nM and a Dmax [2] greater than 75%.
